Test results reported in patent US11478445B2, “Method for treating acute myeloid leukemia” (Bionomics Limited, priority 2017, dated 2022).

Experiments:
[1] = system: HL-60 AML cell line; assay: MTS proliferation assay, HL-60; assay type: cell-based
Procedure: (§1) The cell lines (MV4; 11 and HL-60) were plated in 96-well plates at 1×10^4 cells/well in 50 uL of complete growth media. Cells were plated in triplicate wells for each dose being tested. EX 1 (in DMSO), Oxi4503 (EndoTherm, Batch #EN09013, in water), CA4P (Selleckchem, Cat #S7204, in water) and Plinabulin (Selleckchem, Cat #S1176, in DMSO) was reconstituted immediately prior to use at 10 mM in appropriate diluent as indicated. The drug was prepared 2× concentrated in media and 50 uL added to respective wells (0.1% DMSO or water, final concentration). After 72 hours, 20 μL of CellTiter 96 AQueous One Solution reagent (Promega cat #G3581) was added to each well and the plate incubated for 2 h at 37° C. before absorbance was measured at 492 nm using a Thermo Multiskan Ascent96/384 Plate Reader.
(§2) To compare the efficacy of EX 1 with other tubulin polymerisation inhibitors, MTS proliferation assays were performed on MV4; 11 and HL-60 AML cell lines (Table 1). […] Cells were cultured with the compounds for 72 hours before viability was measured by the addition of CellTiter 96 AQueous One Solution reagent (Promega cat #G3581) and absorbance measured at 492 nm. IC50 was calculated using the absolute IC50 method in GraphPad Prism 6.

[2] = system: MV4; 11 AML cell line; assay: MTS proliferation assay, MV4;11; assay type: cell-based
Procedure: as §1, §2

- IC50 compared with Oxi4503, CA4P and Plinabulin ([1]; HL-60, 72 h): lowest IC50
- IC50 compared with Oxi4503, CA4P and Plinabulin ([2]; MV4;11, 72 h): lowest IC50
SMILES: COc1cc(C(=O)c2c(C)oc3c(O)c(OC)ccc23)cc(OC)c1OC [EX 1, 2-Methyl-7-hydroxy-3-(3,4,5-trimethoxybenzoyl)-6-methoxybenzofuran]
- potency relative to any other VDAs (times more potent) ([1]; HL-60, 72 h exposure): at least 10 times
- potency relative to any other VDAs (times more potent) ([2]; MV4-11, 72 h exposure): at least 10 times
